Test results taken from patent publication US9771333B2, “Quinazoline derivatives as TAM family kinase inhibitors” (SIGNALCHEM LIFESCIENCES CORP., priority 2013, dated 2017).

Tests used:
Assay type in all cases: biochemical
human Tyro3 = target: T1, human Tyro3 (Homo sapiens, UniProt Q06418); assay: Kinase enzymatic activity assay (33P-radiolabeled phosphate transfer), Tyro3; settings: recombinant human Tyro3 (455-end), poly(4:1 glu:tyr) substrate, 30 minutes
T1 construct: GST (N); made in house; host or cells: Sf9 insect cells (baculovirus)
T1 sequence (Q06418 455-890 limits assumed): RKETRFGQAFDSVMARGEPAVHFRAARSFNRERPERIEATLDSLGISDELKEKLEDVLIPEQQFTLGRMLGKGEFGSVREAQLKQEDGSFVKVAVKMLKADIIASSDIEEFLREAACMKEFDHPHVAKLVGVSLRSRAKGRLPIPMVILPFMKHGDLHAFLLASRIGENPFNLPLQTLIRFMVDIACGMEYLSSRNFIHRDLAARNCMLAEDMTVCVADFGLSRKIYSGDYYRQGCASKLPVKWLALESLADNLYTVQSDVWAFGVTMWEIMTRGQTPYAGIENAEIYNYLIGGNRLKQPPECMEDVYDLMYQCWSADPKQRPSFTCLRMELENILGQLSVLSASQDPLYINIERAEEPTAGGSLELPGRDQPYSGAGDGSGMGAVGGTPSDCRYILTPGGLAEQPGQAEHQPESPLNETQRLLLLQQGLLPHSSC
Source text: (§1) The identification of compounds of the invention as Tyro3, Axl or Mer inhibitors was readily accomplished using the recombinant human Tyro3, Axl and Mer proteins and employing the ^33P-radiolabeled phosphate transfer assay for which the procedure is known to someone skilled in the art or as described in Example 9.
(§2) Recombinant human Tyro3 (455-end, the gene accession number NM_006293), human Axl (473-end, the gene accession number NM_021913) and human Mer (578-872, the gene accession number NM_006343) were independently expressed by baculovirus in Sf9 insect cells using an N-terminal GST tag. The recombinant proteins were stored at −70° C. in a medium containing 50 mM Tris-HCl, pH 7.5, 150 mM NaCl, 10 mM glutathione, 0.1 mM EDTA, 0.25 mM DTT, 0.1 mM PMSF and 25% glycerol. The recombinant proteins were aliquoted into smaller quantities after centrifugation to avoid repeated handling and multiple freeze/thaw cycles for the most favorable performance.
(§3) Kinase Assay Buffer: This buffer solution consisted of the following components: 25 mM MOPS, pH 7.2, 12.5 mM β-glycerol-phosphate, 25 mM MgCl2, 5 mM EGTA, 2 mM EDTA and DTT 0.25 mM which was added prior to use.
(§4) Kinase Dilution Buffer: Kinase Assay Buffer was diluted at a 1:4 ratio (5× dilution) with distilled water.
(§5) [^33P]-ATP assay cocktail: In a designated radioactive working area, a 250 μM [^33P]-ATP assay cocktail was prepared by the addition of the following components: 150 μL of 10 mM ATP stock solution, 100 μL [^33P]-ATP (1 mci/100 μL), and 5.75 mL of kinase assay buffer. This solution was stored in 1 mL aliquots at −20° C.
(§6) ATP stock solution (10 mM): The ATP stock solution was prepared by dissolving 55 mg of ATP in 10 mL of kinase assay buffer. It was stored in 200 μL aliquots at −20° C.
(§7) Active Kinase Stock Solution: The active recombinant kinase protein (0.1 μg/μL) was diluted with Kinase Dilution Buffer and the activity was assayed using a serial dilution method. The specific activity is expressed in nmoL/min/mg.
(§8) Substrates: poly(4:1 glu:tyr) is the substrate used for each kinase Tyro3, Axl and Mer: The peptide substrate was dissolved in water to give the final concentration of 1 mg/mL.
(§9) Test compound solution: Test compound was dissolved in DMSO to obtain a 10 mM solution. The assay solution was prepared by adding 5 μL of this solution to […] of 10% DMSO/water to obtain the final concentration of 50 μM.
(§10) The enzymatic activity of all three kinases was determined as follows. Using a 96-well plate, the wells were divided into three categories: Blank wells, […] and Test wells. In Test wells, 5 μL of the test compound solution and 5 μL of the substrate solution were added. In Control wells, 5 μL of 10% DMSO/water and 5 μL of the substrate solution were added. In Blank wells, 10 μL of 10% DMSO/water was added. To each well was added 10 μL of Active Kinase Stock Solution to make up the volume in each well to 20 μL. All test samples, controls and blanks were run in duplicate. The reaction was initiated by the addition of 5 μL of [^33P]-ATP assay cocktail, bringing the final volume up to 25 μL in every well. The mixture was incubated at room temperature for 30 minutes. The reaction was terminated by transferring 10 μL of the reaction mixture into a Millipore MultiScreen filter plate (cat. number MSPHN6B50). The filter plate was washed in a 1% phosphoric acid solution with constant gentle shaking for 15 minutes and this step was repeated once. After the plate was dried in air, scintillation fluid was added to each well and the radioactivity in each well in CPM was counted by a Microbeta TriLux. The corrected CPM in each test well was determined by subtracting the average value of Blank well values. Percentage of inhibition of the kinase enzymatic activity by the test compound was determined using the following formula: […]
(§11) The IC50 values were determined in a similar way following a serial dilution of the test compound. […]

human Axl = target: T2, human Axl (Homo sapiens, UniProt P30530); assay: Kinase enzymatic activity assay (33P-radiolabeled phosphate transfer), Axl; settings: recombinant human Axl (473-end), poly(4:1 glu:tyr) substrate, 30 minutes
T2 construct: GST (N); made in house; host or cells: Sf9 insect cells (baculovirus)
T2 sequence (P30530 473-894 limits assumed): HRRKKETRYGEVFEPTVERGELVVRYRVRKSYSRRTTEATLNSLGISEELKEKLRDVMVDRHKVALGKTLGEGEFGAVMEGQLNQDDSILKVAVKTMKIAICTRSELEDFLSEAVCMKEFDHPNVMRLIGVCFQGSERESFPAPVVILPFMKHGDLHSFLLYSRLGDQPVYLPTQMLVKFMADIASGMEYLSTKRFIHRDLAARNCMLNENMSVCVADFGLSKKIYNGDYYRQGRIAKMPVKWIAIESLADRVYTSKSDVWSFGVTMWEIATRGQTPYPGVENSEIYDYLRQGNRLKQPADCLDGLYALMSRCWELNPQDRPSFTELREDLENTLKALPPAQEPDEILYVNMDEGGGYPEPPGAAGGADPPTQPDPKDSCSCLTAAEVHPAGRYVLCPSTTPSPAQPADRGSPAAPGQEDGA
Source text: as §1, §2, §3, §4, §5, §6, §7, §8, §9, §10, §11

human Mer = target: T3, human Mer (Homo sapiens, UniProt Q12866); assay: Kinase enzymatic activity assay (33P-radiolabeled phosphate transfer), Mer; settings: recombinant human Mer (578-872), poly(4:1 glu:tyr) substrate, 30 minutes
T3 construct: GST (N); made in house; host or cells: Sf9 insect cells (baculovirus)
T3 sequence (Q12866 578-872): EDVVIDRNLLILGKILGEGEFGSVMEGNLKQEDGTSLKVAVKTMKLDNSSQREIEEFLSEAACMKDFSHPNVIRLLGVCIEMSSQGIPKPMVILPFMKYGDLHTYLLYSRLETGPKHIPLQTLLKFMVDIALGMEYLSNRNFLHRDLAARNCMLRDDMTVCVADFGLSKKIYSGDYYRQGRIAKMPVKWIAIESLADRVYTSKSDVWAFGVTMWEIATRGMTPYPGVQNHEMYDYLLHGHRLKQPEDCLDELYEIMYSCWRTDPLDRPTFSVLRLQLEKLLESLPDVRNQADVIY
Source text: as §1, §2, §3, §4, §5, §6, §7, §8, §9, §10, §11

Structure (SMILES)	IC50 (human Tyro3) [nM]	IC50 (human Axl) [nM]	IC50 (human Mer) [nM]
COCCN1CCN(c2cc(OC3CCOCC3)c3c(Oc4ccc(F)cc4Cl)ncnc3c2)CC1 [Example 2.10, 4-(2-chloro-4-fluorophenoxy)-7-(4-(2-methoxyethyl)piperazin-1-yl)-5-((tetrahydro-2H-pyran-4-yl)oxy)quinazoline]	< 500	1000 to 10000	500 to 1000
COc1cc(OCCN2CCN(C)CC2)cc2ncnc(Oc3ccc(F)cc3Cl)c12 [Example 2.12, 4-(2-chloro-4-fluorophenoxy)-5-methoxy-7-(2-(4-methylpiperazin-1-yl)ethoxy)quinazoline]	< 500	1000 to 10000	1000 to 10000
COc1cc(OCC2CCN(C)CC2)cc2ncnc(Nc3nc(C(F)(F)F)cs3)c12 [Example 2.13, N-(5-methoxy-7-((1-methylpiperidin-4-yl)methoxy)quinazolin-4-yl)-4-(trifluoromethyl)thiazol-2-amine]	> 10000	< 500	> 10000
CN1CCN(CCOc2cc(OC3CCOCC3)c3c(Nc4nccs4)ncnc3c2)CC1 [Example 2.14, N-(7-(2-(4-methylpiperazin-1-yl)ethoxy)-5-((tetrahydro-2H-pyran-4-yl)oxy)quinazolin-4-yl)thiazol-2-amine]	1000 to 10000	< 500	< 500
COc1ncnc2cc(OCCOCCN(C)C)cc(OC3CCOCC3)c12 [Example 2.16, 2-(2-((4-methoxy-5-((tetrahydro-2H-pyran-4-yl)oxy)quinazolin-7-yl)oxy)ethoxy)-N,N-dimethylethanamine]	1000 to 10000	< 500	> 10000
COc1cc(OCCCN2CCOCC2)cc2ncnc(Oc3ccc(F)cc3Cl)c12 [Example 2.17, 4-(3-((4-(2-chloro-4-fluorophenoxy)-5-methoxyquinazolin-7-yl)oxy)propyl)morpholine]	< 500	1000 to 10000	1000 to 10000
CN(C)CCC1CCN(c2cc(OC3CCOCC3)c3c(Nc4nc(C(F)(F)F)cs4)ncnc3c2)CC1 [Example 2.44, N-(7-(4-(2-(dimethylamino)ethyl)piperidin-1-yl)-5-((tetrahydro-2H-pyran-4-yl)oxy)quinazolin-4-yl)-4-(trifluoromethyl)thiazol-2-amine]	1000 to 10000	< 500	–

Second part, the compound after the results:

IC50 (human Tyro3) [nM]	IC50 (human Axl) [nM]	IC50 (human Mer) [nM]	Structure (SMILES)
< 500	1000 to 10000	< 500	Fc1ccc(Oc2ncnc3cc(OCCN4CCCCC4)cc(OC4CCOCC4)c23)c(Cl)c1 [Example 1, 4-(2-chloro-4-fluorophenoxy)-7-(2-(piperidin-1-yl)ethoxy)-5-((tetrahydro-2H-pyran-4-yl)oxy)quinazoline]
< 500	1000 to 10000	< 500	CN1CCC(CCOc2cc(OC3CCOCC3)c3c(Oc4ccc(F)cc4Cl)ncnc3c2)CC1 [Example 2, 4-(2-chloro-4-fluorophenoxy)-7-(2-(1-methylpiperidin-4-yl)ethoxy)-5-((tetrahydro-2H-pyran-4-yl)oxy)quinazoline]
1000 to 10000	1000 to 10000	500 to 1000	Fc1ccc(Oc2ncnc3cc(OCCN4CCOCC4)cc(OC4CCOCC4)c23)c(Cl)c1 [Example 2.1, 4-(2-((4-(2-chloro-4-fluorophenoxy)-5-((tetrahydro-2H-pyran-4-yl)oxy)-quinazolin-7-yl)oxy)ethyl)morpholine]
< 500	1000 to 10000	< 500	CN(C)CCOCCOc1cc(OC2CCOCC2)c2c(Oc3ccc(F)cc3Cl)ncnc2c1 [Example 2.2, 2-(2-((4-(2-chloro-4-fluorophenoxy)-5-((tetrahydro-2H-pyran-4-yl)oxy)quinazolin-7-yl)oxy)ethoxy)-N,N-dimethylethanamine]
500 to 1000	> 10000	1000 to 10000	COCCN(C)CCOc1cc(OC2CCOCC2)c2c(Oc3ccc(F)cc3Cl)ncnc2c1 [Example 2.3, 2-((4-(2-chloro-4-fluorophenoxy)-5-((tetrahydro-2H-pyran-4-yl)oxy)quinazolin-7-yl)oxy)-N-(2-methoxyethyl)-N-methylethanamine]
1000 to 10000	> 10000	1000 to 10000	COCCOCCOc1cc(OC2CCOCC2)c2c(Oc3ccc(F)cc3Cl)ncnc2c1 [Example 2.4, 4-(2-chloro-4-fluorophenoxy)-7-(2-(2-methoxyethoxy)ethoxy)-5-((tetrahydro-2H-pyran-4-yl)oxy)quinazoline]
< 500	500 to 1000	< 500	Fc1ccc(Oc2ncnc3cc(OCCCN4CCOCC4)cc(OC4CCOCC4)c23)c(Cl)c1 [Example 2.5, 4-(3-((4-(2-chloro-4-fluorophenoxy)-5-((tetrahydro-2H-pyran-4-yl)oxy)quinazolin-7-yl)oxy)propyl)morpholine]
1000 to 10000	1000 to 10000	1000 to 10000	CC1(C)OC[C@H](COc2cc(OC3CCOCC3)c3c(Oc4ccc(F)cc4Cl)ncnc3c2)O1 [Example 2.9, (S)-4-(2-chloro-4-fluorophenoxy)-7-((2,2-dimethyl-1,3-dioxolan-4-yl)methoxy)-5-((tetrahydro-2H-pyran-4-yl)oxy)quinazoline]
500 to 1000	1000 to 10000	500 to 1000	CN(C)CCN(C)CCOc1cc(OC2CCOCC2)c2c(Oc3ccc(F)cc3Cl)ncnc2c1 [Example 2.15, N^1-(2-((4-(2-chloro-4-fluorophenoxy)-5-((tetrahydro-2H-pyran-4-yl)oxy)quinazolin-7-yl)oxy)ethyl)-N^1,N^2,N^2-trimethylethane-1,2-diamine]
